We go through 14 molecules from patent publication US9073821B2, “Hydroxamic acid derivative” (priority 2010, dated 2015).

The target in one assay is E. coli LpxC enzyme (Escherichia coli (strain K12), UniProt P0A725). Put plainly: Inhibitory activity on E. coli LpxC enzyme (fluorescamine assay). The format is biochemical. To be noted: Table 4. On the procedure:
Test 2: Evaluation of the Inhibitory Activity on E. coli LpxC Enzyme
An inhibition curve was constructed for each test compound by performing the aforementioned reaction at varying concentrations of the test compound. From this inhibition curve, the concentration of the test compound at which the formation of the reaction product was suppressed by 50% was determined as the IC50 of the test compound, which was an index for the inhibitory activity on E. coli LpxC enzyme.

For assay [1], the target named is Pseudomonas aeruginosa LpxC enzyme (Pseudomonas aeruginosa (strain ATCC 15692 / DSM 22644 / CIP 104116 / JCM 14847 / LMG 12228 / 1C / PRS 101 / PAO1), UniProt P47205). As to the kind of experiment: biochemical. The format is biochemical.
For assay [2], the system named is Pseudomonas aeruginosa strain TS88 (clinical isolate). Put plainly: Antimicrobial activity, MIC by broth microdilution. Conditions: Table 4, 35° C., 18 hours, read-out: Pseudomonas aeruginosa TS88 strain MIC. Type of assay: cell-based. From the text:
(§1) Test 3: Evaluation of Antimicrobial Activity For minimum inhibitory concentration (MIC) measurement, the following broth microdilution method was applied as adapted from the standard procedure recommended by the CLSI (Clinical and Laboratory Standards Institute). The bacteria used were Pseudomonas aeruginosa strain TS88 (clinical isolate), E. coli strain ATCC25922, and Klebsiella pneumoniae strain ATCC13883. After culture overnight on a heart infusion agar medium, the cells of a test bacterium were scraped off and suspended to give a turbidity of level 0.5 on the McFarland scale; the suspension was then diluted 10 fold to prepare an inoculum solution. A 0.005 mL aliquot of the inoculum solution was inoculated in a cation-adjusted Mueller-Hinton broth medium containing a test compound and cultured at 35° C. for 18 hours. A minimum drug concentration at which no cell growth was visible to the naked eye was designated as MIC.
For orientation: Broth dilution looks for growth in wells or tubes with falling amounts of substance.

In assay [3] the test system is Klebsiella pneumoniae strain ATCC13883. As to the kind of experiment: Antimicrobial activity, MIC by broth microdilution. Conditions: Table 4, 35° C., 18 hours, read-out: Klebsiella pneumoniae ATCC 13883 strain MIC. The format is cell-based.
Description: as §1

In a further assay the test system is E. coli strain ATCC25922. Put plainly: Antimicrobial activity, MIC by broth microdilution. To be noted: Escherichia coli, Table 4, 35° C., 18 hours, read-out: E. coli ATCC 25922 strain MIC. Type of assay: cell-based.
Description: as §1

Setting [4] is: Table 4, read-out: Pseudomonas aeruginosa LpxC IC50.
Where [5] appears, read: class symbols A/B/C by IC50, Table 3, read-out: Enzyme inhibitory activity (inhibitory activity on Pseudomonas aeruginosa LpxC enzyme).
The mark [6] stands for this setting: inhibitory activity on Pseudomonas aeruginosa LpxC enzyme, class symbols A/B/C, read-out: Enzyme inhibitory activity.

Values after ≈ are worked out from the molar mass of the structure shown. Like-named read-outs stand apart in the source and are kept apart here.

Sequence of E. coli LpxC enzyme (P0A725 whole entry): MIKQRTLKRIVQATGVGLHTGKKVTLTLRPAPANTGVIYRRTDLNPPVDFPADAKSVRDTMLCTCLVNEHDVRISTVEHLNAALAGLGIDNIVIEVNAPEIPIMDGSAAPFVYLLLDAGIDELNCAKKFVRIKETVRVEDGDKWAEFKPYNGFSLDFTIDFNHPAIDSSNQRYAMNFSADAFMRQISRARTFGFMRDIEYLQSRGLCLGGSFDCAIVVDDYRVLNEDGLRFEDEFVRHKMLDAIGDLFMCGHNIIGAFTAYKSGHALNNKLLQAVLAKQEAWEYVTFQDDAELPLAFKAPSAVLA

`CNC(=O)[C@@](C)(C(=O)NO)N(C)C(=O)c1ccc(C#Cc2coc(CNC3CC3)c2)cc1` [Compound 585, (2S)-2-[{[4-({5-[(cyclopropylamino)methyl]furan-3-yl}ethynyl)phenyl]carbonyl}(methyl)amino]-N-hydroxy-N′,2-dimethylpropanediamide]: the IC50 is 88 nM at E. coli LpxC enzyme, 3.4 nM in assay [1] (setting [4]) and below 10 nM in assay [1] (setting [5]). Besides, the MIC came to 0.5 µg/mL (≈ 1.14 µM) in assay [2], 1 µg/mL (≈ 2.28 µM) in assay [3] and 0.5 µg/mL (≈ 1.14 µM) with E. coli strain ATCC25922.
As for `CCOC1CN(Cc2ccc(C#Cc3ccc(C(=O)N(C)[C@@](C)(C(=O)NC)C(=O)NO)cc3)cc2)C1` [Compound 557, (2S)-2-[{[4-({4-[(3-ethoxyazetidin-1-yl)methyl]phenyl}ethynyl)phenyl]carbonyl}(methyl)amino]-N-hydroxy-N′,2-dimethylpropanediamide], the values for the IC50 (on E. coli LpxC enzyme; in assay [1] (setting [4]); in assay [1] (setting [5])) were 108 nM, 2.3 nM and below 10 nM, respectively. In addition, the minimum inhibitory concentration (MIC) in assay [2] turned out to be 0.5 µg/mL (≈ 1.02 µM); in assay [3] it was 1 µg/mL (≈ 2.03 µM); with E. coli strain ATCC25922, 0.25 µg/mL (≈ 0.508 µM).
As to `CCOc1ccc(-c2ccc(C(=O)N(C)C(C(=O)NC)C(=O)NO)cc2)cc1` (stereo not shown) [Compound 211, 2-{[(4′-ethoxybiphenyl-4-yl)carbonyl](methyl)amino}-N-hydroxy-N′-methylpropanediamide], the IC50 is 109 nM against E. coli LpxC enzyme, 3.1 nM in assay [1] (setting [4]) and below 10 nM in assay [1] (setting [6]). Further, the MIC in assay [2] is 0.5 µg/mL (≈ 1.3 µM); in assay [3] it was 8 µg/mL (≈ 20.8 µM); in the assay with E. coli strain ATCC25922, 1 µg/mL (≈ 2.59 µM).
On to `CNC(=O)C(C)(C(=O)NO)N(C)C(=O)c1ccc(C#Cc2coc(COC)c2)cc1` (stereo not shown) [Compound 528, N-hydroxy-2-{[(4-{[5-(methoxymethyl)furan-3-yl]ethynyl}phenyl)carbonyl](methyl)amino}-N′,2-dimethylpropanediamide], for which the IC50 is 25 nM against E. coli LpxC enzyme, below 10 nM in assay [1] and 4.8 nM in assay [1] (setting [4]). Moreover, the MIC in assay [2] worked out at 0.5 µg/mL (≈ 1.21 µM); in assay [3] it was 2 µg/mL (≈ 4.84 µM); with E. coli strain ATCC25922, 0.25 µg/mL (≈ 0.605 µM).
Take `CNC(=O)[C@@](C)(C(=O)NO)N(C)C(=O)c1ccc(C#Cc2ccc(CN3CCCOCC3)cc2)cc1` [Compound 376, (2S)-N-hydroxy-N′,2-dimethyl-2-[methyl(4-{[4-(1,4-oxazepan-4-ylmethyl)phenyl]ethynyl}benzoyl)amino]propanediamide]: the IC50 against E. coli LpxC enzyme is 129 nM; in assay [1] (setting [4]), 2 nM; in assay [1] (setting [6]), below 10 nM. The MIC was determined as 0.5 µg/mL (≈ 1.02 µM) in assay [2], 1 µg/mL (≈ 2.03 µM) in assay [3] and 0.25 µg/mL (≈ 0.508 µM) in the assay on E. coli strain ATCC25922.
`CNC(=O)[C@@](C)(C(=O)NO)N(C)C(=O)c1ccc(CCc2ccc(CN3CCOCC3)cc2)cc1` [Compound 425, (2S)-N-hydroxy-N′,2-dimethyl-2-{methyl[(4-{2-[4-(morpholin-4-ylmethyl)phenyl]ethyl}phenyl)carbonyl]amino}propanediamide]: the IC50 at E. coli LpxC enzyme is 121 nM; in assay [1] (setting [4]), 5.1 nM; in assay [1] (setting [6]), below 10 nM. For the same molecule, the MIC in assay [2] was found to be 8 µg/mL (≈ 16.6 µM); in assay [3], 8 µg/mL (≈ 16.6 µM); in the assay on E. coli strain ATCC25922, 2 µg/mL (≈ 4.14 µM).
As for `CNC(=O)C(C(=O)NO)N(C)C(=O)c1ccc(C#C/C=C/c2ccc(CNC3CC3)cc2)cc1` (stereo not shown) [Compound 481, 2-[({4-[(3E)-4-{4-[(cyclopropylamino)methyl]phenyl}but-3-en-1-yn-1-yl]phenyl}carbonyl)(methyl)amino]-N-hydroxy-N′-methylpropanediamide], the IC50 at E. coli LpxC enzyme was 78 nM; in assay [1] (setting [4]), 9.1 nM; in assay [1] (setting [6]) it was below 10 nM. For the same molecule, the minimum inhibitory concentration (MIC) was found to be 1 µg/mL (≈ 2.17 µM) in assay [2], 2 µg/mL (≈ 4.34 µM) in assay [3] and 0.25 µg/mL (≈ 0.543 µM) in the assay on E. coli strain ATCC25922.
Regarding `CNC(=O)C(C(=O)NO)N(C)C(=O)c1ccc(/C=C/C#Cc2ccc(CNC3CC3)cc2)cc1` (stereo not shown) [Compound 477, 2-[({4-[(1E)-4-{4-[(cyclopropylamino)methyl]phenyl}but-1-en-3-yn-1-yl]phenyl}carbonyl)(methyl)amino]-N-hydroxy-N′-methylpropanediamide], the IC50 against E. coli LpxC enzyme was 33 nM; in assay [1] (setting [4]), 4.3 nM; in assay [1] (setting [6]) it was below 10 nM. Besides, the MIC was 0.5 µg/mL (≈ 1.09 µM) in assay [2], 1 µg/mL (≈ 2.17 µM) in assay [3] and 0.25 µg/mL (≈ 0.543 µM) in the assay with E. coli strain ATCC25922.
As for `CNC(=O)[C@@](C)(C(=O)NO)N(C)C(=O)c1ccc(/C=C/c2ccc(CN3CCOCC3)cc2)cc1` [Compound 434, (2S)-N-hydroxy-N′,2-dimethyl-2-{methyl[(4-{(E)-2-[4-(morpholin-4-ylmethyl)phenyl]ethenyl}phenyl)carbonyl]amino}propanediamide], the results for the IC50 (against E. coli LpxC enzyme; in assay [1] (setting [4]); in assay [1] (setting [6])) were 55 nM, 2.8 nM and below 10 nM, respectively. In addition, the figures for the MIC (in assay [2]; in assay [3]; in the assay with E. coli strain ATCC25922) were 1 µg/mL (≈ 2.08 µM), 1 µg/mL (≈ 2.08 µM) and 0.25 µg/mL (≈ 0.52 µM), respectively.
For the molecule `CNC(=O)C(C(=O)NO)N(C)C(=O)c1ccc(C#Cc2ccc(CN3CCCOCC3)cc2)cc1` (stereo not shown) [Compound 168, N-hydroxy-N′-methyl-2-[methyl(4-{[4-(1,4-oxazepan-4-ylmethyl)phenyl]ethynyl}benzoyl)amino]propanediamide], the results for the IC50 (against E. coli LpxC enzyme; in assay [1] (setting [4]); in assay [1] (setting [6])) were 119 nM, 4.2 nM and below 10 nM, respectively. Besides, the minimal inhibitory concentration (MIC) in assay [2] came out at 0.5 µg/mL (≈ 1.04 µM); in assay [3], 2 µg/mL (≈ 4.18 µM); with E. coli strain ATCC25922 it was 0.5 µg/mL (≈ 1.04 µM).
`CNC(=O)[C@@](C)(C(=O)NO)N(C)C(=O)c1ccc(C#Cc2ccc(CNCCF)cc2)cc1` [Compound 554, (2S)-2-[({4-[(4-{[(2-fluoroethyl)amino]methyl}phenyl)ethynyl]phenyl}carbonyl)(methyl)amino]-N-hydroxy-N′,2-dimethylpropanediamide] had an IC50 on E. coli LpxC enzyme of 120 nM. Also, the minimum inhibitory concentration (MIC) in assay [2] turned out to be 0.5 µg/mL (≈ 1.1 µM); in assay [3], 1 µg/mL (≈ 2.2 µM); with E. coli strain ATCC25922, 0.5 µg/mL (≈ 1.1 µM).
In the case of `CCOc1ccc(-c2ccc(C(=O)N(C)[C@@](C)(C(=O)NC)C(=O)NO)cc2)cc1` [Compound 399, (2S)-2-{[(4′-ethoxybiphenyl-4-yl)carbonyl](methyl)amino}-N-hydroxy-N′,2-dimethylpropanediamide], the IC50 on E. coli LpxC enzyme is 13 nM. The MIC is 0.5 µg/mL (≈ 1.25 µM) in assay [2], 0.5 µg/mL (≈ 1.25 µM) in assay [3] and 0.125 µg/mL (≈ 0.313 µM) with E. coli strain ATCC25922.
Turning to `CNC(=O)[C@@](C)(C(=O)NO)N(C)C(=O)c1ccc(C#Cc2ccc(CCN3CCOCC3)cc2)cc1` [Compound 410, (2S)-N-hydroxy-N′,2-dimethyl-2-(methyl {[4-({4-[2-(morpholin-4-yl)ethyl]phenyl}ethynyl)phenyl]carbonyl}amino)propanediamide], the IC50 against E. coli LpxC enzyme came out at 78 nM. Besides, the minimum inhibitory concentration (MIC) was 1 µg/mL (≈ 2.03 µM) in assay [2], 1 µg/mL (≈ 2.03 µM) in assay [3] and 0.25 µg/mL (≈ 0.508 µM) with E. coli strain ATCC25922.
At E. coli LpxC enzyme, `CNC(=O)[C@@](C)(C(=O)NO)N(C)C(=O)c1ccc(-c2ccc3c(ccn3C)c2)cc1` [Compound 402, (2S)-N-hydroxy-N′,2-dimethyl-2-(methyl {[4-(1-methyl-1H-indol-5-yl)phenyl]carbonyl}amino)propanediamide] displayed an IC50 of 4.9 nM. The MIC in assay [2] stood at 1 µg/mL (≈ 2.45 µM); in assay [3], 1 µg/mL (≈ 2.45 µM); in the assay on E. coli strain ATCC25922 it was 0.125 µg/mL (≈ 0.306 µM).

By MIC is commonly meant the lowest concentration found to suppress growth.
